pIC50: −log10 of the molar value.
How the values were obtained:
Mus musculus [1] = experiment: Cognitive enhancing effect in Kunming mouse assessed as inhibition of scopolamine-induced decreased spontaneous alternation behavior at 6 mg/kg after 30 mins by T-maze test; type: functional; design: scale not given: the % may be the effect or the level left
Mus musculus [2] = experiment: Neuroprotective effect in Kunming mouse hippocampus assessed as reduction of scopolamine-induced vitality of AChE at 6 mg/kg by Ellman method; type: functional
[3] = Inhibition of rat serum BuChE using butyrylthiocholine iodide as substrate after 15 mins by Ellman method; type: cell-free
Mus musculus [4] = experiment: Neuroprotective effect in scopolamine-treated Kunming mouse hippocampus assessed as increase in vitality of ChAT at 6 mg/kg by Ellman method; type: functional

Compound: CCN(C)C(=O)Oc1cccc([C@H](C)N(C)C)c1 [RIVASTIGMINE]
- Activity (Mus musculus [1]): 67.3%
- Activity (Mus musculus [2]): 0.087 U/mg
- pIC50 [3]: 5.85
- Activity (Mus musculus [4]): 44.8 U/mg

Source: ChEMBL document CHEMBL3399969, “Multifunctional scutellarin-rivastigmine hybrids with cholinergic, antioxidant, biometal chelating and neuroprotective properties for the treatment of Alzheimer's disease” (Bioorg Med Chem, 2015)
